Source: PMC8618934, “Synthesis, Crystal Structure, and Biological Evaluation of Novel 5-Hydroxymethylpyrimidines” (Materials, 2021)
Values after ≈ are worked out from the molar mass of the structure shown.

Columns and labels:
[1] = test system: HeLa; test: Neutral red uptake assay, HeLa; format: cell-based; conditions: Homo sapiens, 72 h incubation
Description: (§1) To all media (except for RPTEC), 2.5 µg mL^−1 amphotericin B, 100 U mL^−1 penicillin, and 100 µg mL^−1 streptomycin were added.
(§2) The cells were put in 96-well plates (1 × 10^5 cells per mL) of appropriate culture medium (100 µL per well). Before a general experiment, cells were attached for 24 h and then treated with various concentrations (500, 250, 100, and 10 µM) of pyrimidine derivatives and subsequently grown in 200 µL medium volume. […] The neutral red uptake assay was performed according to Repetto et al.. This method uses the ability of the living cells to accumulate dye in their lysosomes. […] Finally, the absorbance was measured at 540 nm using a Thermo Scientific™ Multiskan™ GO Microplate Spectrophotometer (Thermo Fisher).
(§3) The viability tests were conducted in quadruple wells (n = 4) for each condition. Values are presented as mean ± standard deviation (SD). Significant differences were calculated using one-way ANOVA, followed by post hoc comparison, and the half-maximal inhibitory concentration (IC50) was obtained by nonlinear regression using GraphPad Prism 9.1 for Windows, GraphPad Software, La Jolla, California, USA, www.graphpad.com.

[2] = test system: HepaRG; test: Neutral red uptake assay, HepaRG; format: cell-based, human; conditions: 72 h incubation
Description: as §1, §2, §3

[3] = test system: Caco-2; test: Neutral red uptake assay, Caco-2; format: cell-based; conditions: Homo sapiens, 72 h incubation
Description: as §1, §2
as §3, with “www.graphpad.com. A p-value < 0.05 was considered statistically significant.” for “www.graphpad.com.”

[4] = test system: AGS; test: Neutral red uptake assay, AGS; format: cell-based; conditions: Homo sapiens, 72 h incubation
Description: as §1, §2, §3

[5] = test system: A172; test: Neutral red uptake assay, A172; format: cell-based; conditions: Homo sapiens, A 172, 72 h incubation
Description: as §1, §2, §3

[6] = test system: methicillin-resistant Staphylococcus aureus (MRSA); test: Antimicrobial activity, broth microdilution MIC; format: cell-based; conditions: tested 256 to 0.5 µg mL^−1, 24 h, '-' not defined, no MIC in tested range
[7] = Neutral red uptake assay, viability of normal RPTEC cells; format: cell-based; conditions: human, 72 h treatment, vs control with 1% DMSO = 100%, read-out: Viability of RPTEC cell line
Description: For cytotoxicity assays, the following cell lines were used: human renal proximal tubule epithelial cells (RPTEC-MTOX1030), epithelioid cervix carcinoma (HeLa-93021013), colon adenocarcinoma (Caco-2-86010202), hepatocarcinoma (HepaRG-MTOX1010), gastric adenocarcinoma (AGS-89090402), and glioblastoma (A172-88062428) cells were cultured in appropriate media according to the European Collection of Authenticated Cell Cultures (ECACC) recommendation. To all media (except for RPTEC), 2.5 µg mL^−1 amphotericin B, 100 U mL^−1 penicillin, and 100 µg mL^−1 streptomycin were added. In addition, the RPTEC cell line was cultured in media with 30 μg mL^−1 gentamicin and 15 ng mL^−1 amphotericin B. Cell cultures were incubated at 37 °C in a humidified atmosphere with 5% CO2 for at least three passages until performing experiments. All cell lines were grown in monolayers; thus, detachment with 0.25% trypsin solution was required for further assays.
The cells were put in 96-well plates (1 × 10^5 cells per mL) of appropriate culture medium (100 µL per well). Before a general experiment, cells were attached for 24 h and then treated with various concentrations (500, 250, 100, and 10 µM) of pyrimidine derivatives and subsequently grown in 200 µL medium volume. […]. The cells were incubated for 24, 48, and 72 h at 37 °C in a humidified 5% CO2/95% air incubator. The neutral red uptake assay was performed according to Repetto et al.. This method uses the ability of the living cells to accumulate dye in their lysosomes. Briefly, at the end of each incubation time the cells were treated with neutral red solution (40 µg mL^−1) for 2 h at 37 °C. Afterwards, the cells were washed with PBS, and the incorporated dye was solubilized with the extraction solution (50% ethanol, 49% H2O, 1% glacial acetic acid). The plates were gently shaken for 30 min at 37 °C. Finally, the absorbance was measured at 540 nm using a Thermo Scientific™ Multiskan™ GO Microplate Spectrophotometer (Thermo Fisher).
as §3, with “www.graphpad.com. A p-value < 0.05 was considered statistically significant. All results were compared with the control with 1% DMSO, which was considered to be 100%.” for “www.graphpad.com.”

[8] = test system: Acinetobacter baumannii; test: Antimicrobial activity, broth microdilution MIC; format: cell-based; conditions: tested 256 to 0.5 µg mL^−1, 24 h, '-' not defined, no MIC in tested range
[9] = test system: normal human endothelial cells; parameters: method as in PMID 30284980; conditions: cited from earlier work
[10] = test system: Escherichia coli; test: Antimicrobial activity, broth microdilution MIC; format: cell-based; conditions: tested 256 to 0.5 µg mL^−1, 24 h, '-' not defined, no MIC in tested range
[11] = test system: Klebsiella pneumoniae; test: Antimicrobial activity, broth microdilution MIC; format: cell-based; conditions: tested 256 to 0.5 µg mL^−1, 24 h, '-' not defined, no MIC in tested range, read-out: MIC K. pneumoniae
[12] = test system: cancer cell lines; parameters: method as in PMID 30284980; conditions: range depending on the cancer cell line; cited from earlier work
[13] = test system: Enterococcus faecalis; test: Antimicrobial activity, broth microdilution MIC; format: cell-based; conditions: tested 256 to 0.5 µg mL^−1, 24 h, '-' not defined, no MIC in tested range, read-out: MIC E. faecalis
[14] = test system: Pseudomonas aeruginosa; test: Antimicrobial activity, broth microdilution MIC; format: cell-based; conditions: tested 256 to 0.5 µg mL^−1, 24 h, '-' not defined, no MIC in tested range, read-out: MIC P. aeruginosa
[15] = test system: Candida albicans; test: Antimicrobial activity, broth microdilution MIC; format: cell-based; conditions: tested 256 to 0.5 µg mL^−1, 24 h, '-' not defined, no MIC in tested range, read-out: MIC C. albicans

Row | SMILES | IC50 [1] | IC50 ([2]; Homo sapiens, HepaRG, 72 h) | IC50 [3] | IC50 [4] | IC50 [5] | melting point | also measured
1 | Cc1nc(-c2ccccc2)nc(NCCO)c1CO [Compound 3i, 2-{[5-(hydroxymethyl)-6-methyl-2-phenylpyrimidin-4-yl]amino}ethan-1-ol] | > 250 µM | > 250 µM | > 250 µM | > 250 µM | > 250 µM | 141 °C | 
2 | Cc1nc(-c2ccccc2)nc(N)c1CO [Compound 3c, (4-amino-6-methyl-2-phenylpyrimidin-5-yl)methanol] | > 250 µM | > 250 µM | > 250 µM | > 250 µM | > 250 µM | 177 to 178 °C | 
3 | C=CCNc1nc(-c2ccccc2)nc(C)c1CO [Compound 3f, {4-methyl-2-phenyl-6-[(prop-2-en-1-yl)amino]pyrimidin-5-yl}methanol] | > 250 µM | > 250 µM | > 250 µM | > 250 µM | > 250 µM | 174 to 175 °C | MIC [6]: 256 µg/mL (≈ 1000 µM)
4 | Cc1ccccc1CSc1nc(-c2ccccc2)nc(C)c1CO [Compound 3b, (4-methyl-6-{[(2-methylphenyl)methyl]sulfanyl}-2-phenylpyrimidin-5-yl)methanol] |  |  |  |  |  | 147 °C | viability at 72 h, 10 µM [7]: 91%; viability at 72 h, 100 µM [7]: 44%; viability at 72 h, 250 µM [7]: 46%; viability at 72 h, 500 µM [7]: 34%
5 | Cc1nc(-c2ccccc2)nc(NC2CCCCC2)c1CO [Compound 3j, [4-(cyclohexylamino)-6-methyl-2-phenylpyrimidin-5-yl]methanol] |  |  |  |  |  | 143 °C | viability at 72 h, 10 µM [7]: 89%; viability at 72 h, 100 µM [7]: 28%; viability at 72 h, 250 µM [7]: 70%; viability at 72 h, 500 µM [7]: 16%
6 | CCNc1nc(-c2ccccc2)nc(C)c1CO [Compound 3d, [4-(ethylamino)-6-methyl-2-phenylpyrimidin-5-yl]methanol] | > 250 µM | > 250 µM | > 250 µM | > 250 µM | > 250 µM | 191 °C | 
7 | Cc1nc(-c2ccccc2)nc(NC(C)(C)C)c1CO [Compound 3h, [4-(tert-butylamino)-6-methyl-2-phenylpyrimidin-5-yl]methanol] | > 250 µM | 132 µM | > 250 µM | > 250 µM | > 250 µM | 173 to 174 °C | IC50 [2]: 132 µM; MIC [8]: 256 µg/mL (≈ 943 µM)
8 | Cc1nc(-c2ccccc2)nc(SCc2ccc(Cl)cc2)c1C [4-[(4-chlorobenzyl)sulfanyl]-5,6-dimethyl-2-phenylpyrimidine] |  |  |  |  |  |  | survival of normal human endothelial cells [9]: 58%
9 | CNC(C)C1CCC(N)C(OC2C(N)CC(N)C(OC3OCC(C)(O)C(NC)C3O)C2O)O1 (stereo not drawn) [Gentamicin, reference compound] |  |  |  |  |  |  | MIC [10]: 2 µg/mL (≈ 4.19 µM); MIC [11]: 2 µg/mL (≈ 4.19 µM)
10 | Cc1nc(-c2ccccc2)nc(NC(C)C)c1CO [Compound 3g, {4-methyl-2-phenyl-6-[(propan-2-yl)amino]pyrimidin-5-yl}methanol] | 209 µM | 183 µM | > 250 µM | > 250 µM | 147 µM | 160 °C | MIC [8]: 256 µg/mL (≈ 995 µM); MIC [10]: 128 µg/mL (≈ 497 µM)
11 | Cc1nc(-c2ccccc2)nc(SCc2ccc(Cl)cc2)c1CO [5-hydroxymethyl derivative] |  |  |  |  |  |  | survival of normal human endothelial cells [9]: 1%; IC50 [12]: 17 to 38 µM
12 | CCCNc1nc(-c2ccccc2)nc(C)c1CO [Compound 3e, [4-methyl-2-phenyl-6-(propylamino)pyrimidin-5-yl]methanol] | > 250 µM | > 250 µM | > 250 µM | > 250 µM | > 250 µM | 158 to 159 °C | MIC [8]: 256 µg/mL (≈ 995 µM); MIC [13]: 256 µg/mL (≈ 995 µM)
13 | C[C@H]1COc2c(N3CCN(C)CC3)c(F)cc3c(=O)c(C(=O)O)cn1c23 [Levofloxacin, reference compound] |  |  |  |  |  |  | MIC [8]: 0.5 µg/mL (≈ 1.38 µM); MIC [14]: 1 µg/mL (≈ 2.77 µM); MIC [13]: 4 µg/mL (≈ 11.1 µM); MIC [6]: 1 µg/mL (≈ 2.77 µM)
14 | Cc1nc(-c2ccccc2)nc(SCc2ccccc2)c1CO [Compound 3a, [4-(benzylsulfanyl)-6-methyl-2-phenylpyrimidin-5-yl]methanol] | > 250 µM | 201 µM | > 250 µM | 209 µM | > 250 µM | 144 to 145 °C | MIC [15]: 256 µg/mL (≈ 794 µM)
